According to patent EP4722195A1, “PH-SENSITIVE CATIONIC LIPID AND LIPID NANOPARTICLES” (National University Corporation Hokkaido University, priority 2023, dated 2024):
Like-named read-outs stand apart in the source and are kept apart here.

How the values were obtained:
[1] = lipid nanoparticles, tns
Method: The apparent pKa of the lipid nanoparticles was measured using p-toluenesulfonic acid (TNS). First, TNS (final concentration: 0.75 µM) and lipid nanoparticles (final concentration: 30 µM) were mixed in a buffer (200 mL) adjusted to each pH (pH 3.5 to 9.5). As the buffer, 20 mM citrate buffer, 20 mM sodium phosphate buffer, or 20 mM Tris-HCl buffer containing 130 mM NaCl was used. The fluorescence intensity of the prepared mixture was measured using a fluorescence spectrophotometer (Varioskan Lux, manufactured by Thermo Fisher Scientific) with the settings of λex=321 nm and λem=447 nm. Among the measured values, the highest value and the lowest value were set as 100% and 0% ionization degrees, respectively, and the pH showing a 50% ionization degree was calculated as the apparent pKa. The content ratio (%) of cationically charged pH-sensitive cationic lipid was calculated using the Henderson-Hasselbalch equation.

[2] = system: liver; test: EGFP expression in liver tissue sections of mice administered EGFP mRNA-loaded lipid nanoparticles (confocal microscopy); format: in vivo, Balb/c mice; conditions: Example 27, Fig. 6; EGFP mRNA-loaded lipid nanoparticles TxT/DSPC/chol/PEG-DMG=50/3/47/1.5 (mol%); 24 hours post-administration
Method: Subsequently, each EGFP mRNA-loaded lipid nanoparticle was administered to Balb/c mice at a dose of 0.2 mg mRNA/kg. At 23 hours and 50 minutes post-administration, fluorescently labeled lectin (DyLight-649 Lycopersicon (Tomato) Lectin) was intravenously injected via the tail vein at 40 µg/mouse to fluorescently label vascular endothelial cells. At 24 hours after administration of the lipid nanoparticles, the mice were euthanized, and their livers were collected to prepare tissue sections. For nuclear staining, the tissue sections were immersed in a nuclear staining solution (1 µg/mL Hoechst 33342 dissolved in PBS(-)), cooled on ice, and incubated for at least 30 minutes in the dark. The stained tissue sections were then observed using a confocal laser scanning microscope. Subsequently, in the same manner as Example 26, each EGFP mRNA-loaded lipid nanoparticle was administered to Balb/c mice. At 23 hours and 50 minutes post-administration, fluorescently labeled lectin was administered. At 24 hours after administration of the lipid nanoparticles, the mice were euthanized, and their livers were collected to prepare tissue sections. Each tissue section was observed using a confocal laser scanning microscope. In the figure, the upper panels show fluorescence images of EGFP, and the lower panels show fluorescence images of vascular endothelial cells (fluorescently labeled lectin).

[3] = Encapsulation rate of lipid nanoparticles (Ribogreen); format: physicochemical
Method: The encapsulation rate of the lipid nanoparticles was determined by measuring the amount of encapsulated nucleic acid (mRNA) using Ribogreen (manufactured by Life Technologies), which is an RNA intercalator. The mRNA amount was quantified based on a calibration curve prepared from a series of diluted mRNA solutions at known concentrations.
Specifically, 10 mM HEPES buffer (pH 7.4), 10 w/v% Triton X-100, and Ribogreen were mixed at 978.8 µL, 20 µL, and 1.25 µL per 10 wells, respectively, to obtain a Triton(+) buffer. A Triton(-) buffer was obtained in replacing Triton X-100 with 10 mM HEPES buffer (pH 7.4). 100 µL/well of the sample was added to a black 96-well plate for fluorescence measurement, and 100 µL/well of Triton(+) buffer or Triton(-) buffer was added. After the plate was gently shaken on a shaking incubator (SI-300, manufactured by AS ONE) (700 rpm, 30 seconds), the fluorescence intensity of each well was measured using a microplate reader (VARIOSKAN LUX, manufactured by Thermo Fisher Scientific) (wavelength Ex/Em=500 nm/525 nm), and the nucleic acid encapsulation rate (%) was calculated.

[4] = Zeta potential of lipid nanoparticles; format: physicochemical
Method: (§1) The average particle size (number average value), ζ-average particle size, and polydispersity index (PdI) of the lipid nanoparticles in PBS(-) (pH 7.4), and the zeta potential in 10 mM HEPES buffer (pH 7.4) were measured using an analyzer "Zetasizer Nano ZS ZEN3600" (manufactured by Malvern) utilizing dynamic light scattering.

[5] = Average particle size and polydispersity index of lipid nanoparticles (dynamic light scattering); format: physicochemical
Method: as §1

[6] = Apparent pKa of lipid nanoparticles (TNS)
[7] = Table 3, Fluc mRNA-loaded lipid nanoparticles, TxT/DSPC/chol/PEG-DMG=50/3/47/1.5 (mol%)
[8] = Table 5, EGFP mRNA-loaded lipid nanoparticles, TxT/DSPC/chol/PEG-DMG=50/3/47/1.5 (mol%), total flow rate 3.0 mL/min
[9] = Table 1, Fluc mRNA-loaded lipid nanoparticles, TxT/DSPC/chol/PEG-DMG=50/15/35/1.5 (mol%)
[10] = Table 4, Fluc mRNA-loaded lipid nanoparticles, TxT-5-5A14/DSPC/chol/PEG-DMG=50/3/47/1.5, SM-102, ALC-0315 or MC3/DSPC/chol/PEG-DMG=50/10/40/1.5 (mol%)
[11] = Table 7, hEPO mRNA-loaded lipid nanoparticles, TxT/DSPC/chol/PEG-DMG=50/3/47/1.5, SM-102/DSPC/chol/PEG-DMG=50/10/40/1.5 (mol%)

With `CCCCC(CC)CN(CC(CC)CCCC)C(=O)CCCC(=O)OCC(COC(=O)CCCC(=O)N(CC(CC)CCCC)CC(CC)CCCC)(COC(=O)CCCC(=O)N(CC(CC)CCCC)CC(CC)CCCC)NC(=O)CCN1CCCCC1` (stereo not drawn) [TxT-5-5A16b] the pKa [1] was 4.99, the “fluorescence of EGFP in the liver tissues” value (shortened to “fluorescence of EGFP”) [2] was “fluorescence of EGFP was observed” and the mRNA concentration [3, 7] was 0.019 µg/µL. It also gave a mRNA encapsulation rate [3, 7] of 96.0%, a mRNA concentration [3, 8] of 0.020 µg/µL and a mRNA encapsulation rate [3, 8] of 97.9%. It also gave a ζ-potential [4, 7] of -11.2 mV, a ζ-potential [4, 8] of -6.0 mV and a Pdl [5, 7] of 0.22. The “number average particle size” value [5, 7] was 61.6 nm, the ζ-average particle size [5, 7] was 103.7 nm and the Pdl [5, 8] was 0.07. The “number average particle size” value [5, 8] was 59.1 nm and the ζ-average particle size [5, 8] was 81.4 nm.
For `CCCCCN(CCCCC)C(=O)CCCC(=O)OCC(COC(=O)CCCC(=O)N(CCCCC)CCCCC)(COC(=O)CCCC(=O)N(CCCCC)CCCCC)NC(=O)CCN1CCCCC1` [TxT-5-5A10, 2-(((5-(dipentylamino)-5-oxopentanoyl)oxy)methyl)-2-(3-(piperidin-1-yl)propanamido)propane-1,3-diyl bis(5-(dipentylamino)-5-oxopentanoate)], the mRNA concentration [3, 9] was 0.012 µg/µL, the mRNA encapsulation rate [3, 9] was 56.5% and the pKa ([6]; Table 1, apparent pKa of Fluc mRNA-loaded lipid nanoparticles, TxT/DSPC/chol/PEG-DMG=50/15/35/1.5 (mol%)) was 7.94. The ζ-potential [4, 9] was -36.4 mV, the Pdl [5, 9] was 0.42 and the “number average particle size” value [5, 9] was 213.0 nm. The ζ-average particle size [5, 9] was 426.0 nm.
In the case of “2-(6-(didecylamino)-2,6-dioxohexyl)-2-(3-(piperidin-1-yl)propanamido)propane-1,3-diyl bis(5-(didecylamino)-5-oxopentanoate) [TxT-5-5A20]”, the pKa [1] is reported as 6.53, the “fluorescence of EGFP” value [2] is reported as “fluorescence of EGFP was observed” and the mRNA concentration [3, 7] is reported as 0.018 µg/µL. It also gave a mRNA encapsulation rate [3, 7] of 98.2%, a mRNA concentration [3, 8] of 0.022 µg/µL and a mRNA encapsulation rate [3, 8] of 97.8%. The ζ-potential [4, 7] was -4.4 mV, the ζ-potential [4, 8] was -8.7 mV and the Pdl [5, 7] was 0.11. For the same compound, the “number average particle size” value [5, 7] was 95.1 nm, the ζ-average particle size [5, 7] was 136.2 nm and the Pdl [5, 8] was 0.08. For the same compound, the “number average particle size” value [5, 8] was 108.4 nm and the ζ-average particle size [5, 8] was 136.2 nm.
Compound `CCCCCCCCCCCOC(=O)CCCCCN(CCO)CCCCCCCC(=O)OC(CCCCCCCC)CCCCCCCC` [SM-102, reference compound] has a mRNA concentration [3, 10] of 0.018 µg/µL, a mRNA encapsulation rate [3, 10] of 99.6% and a mRNA concentration [3, 11] of 0.015 µg/µL. The mRNA encapsulation rate [3, 11] was 97.5%, the ζ-potential [4, 10] was -11.0 mV and the ζ-potential [4, 11] was 0.0 mV. The Pdl [5, 10] was 0.21, the “number average particle size” value [5, 10] was 42.0 nm and the ζ-average particle size [5, 10] was 70.4 nm. The Pdl [5, 11] was 0.19, the “number average particle size” value [5, 11] was 38.6 nm and the ζ-average particle size [5, 11] was 78.8 nm.
With `CCCCN(CCCC)C(=O)CCCC(=O)OCC(COC(=O)CCCC(=O)N(CCCC)CCCC)(COC(=O)CCCC(=O)N(CCCC)CCCC)NC(=O)CCN1CCCCC1` [TxT-5-5A8, 2-(((5-(dibutylamino)-5-oxopentanoyl)oxy)methyl)-2-(3-(piperidin-1-yl)propanamido)propane-1,3-diyl bis(5-(dibutylamino)-5-oxopentanoate)] the mRNA concentration [3, 9] was 0.005 µg/µL, the mRNA encapsulation rate [3, 9] was 23.7% and the ζ-potential [4, 9] was -5.3 mV. The Pdl [5, 9] was 0.19, the “number average particle size” value [5, 9] was 61.6 nm and the ζ-average particle size [5, 9] was 92.9 nm.
With `CCCCCCCCC(CCCCCC)CNC(=O)CCCC(=O)OCC(COC(=O)CCCC(=O)NCC(CCCCCC)CCCCCCCC)(COC(=O)CCCC(=O)NCC(CCCCCC)CCCCCCCC)NC(=O)CCN1CCCCC1` (stereo not drawn) [TxT-5-5A16β, 2-(((5-((2-hexyldecyl)amino)-5-oxopentanoyl)oxy)methyl)-2-(3-(piperidin-1-yl)propanamido)propane-1,3-diyl bis(5-((2-hexyldecyl)amino)-5-oxopentanoate)] the “fluorescence of EGFP” value [2] was “fluorescence of EGFP was observed”, the mRNA concentration [3, 7] was 0.018 µg/µL and the mRNA encapsulation rate [3, 7] was 99.2%. The mRNA concentration [3, 8] was 0.016 µg/µL, the mRNA encapsulation rate [3, 8] was 99.1% and the pKa [6, 7] was 4.90. For the same compound, the ζ-potential [4, 7] was -7.4 mV, the ζ-potential [4, 8] was -8.9 mV and the Pdl [5, 7] was 0.07. For the same compound, the “number average particle size” value [5, 7] was 69.3 nm, the ζ-average particle size [5, 7] was 89.4 nm and the Pdl [5, 8] was 0.06. For the same compound, the “number average particle size” value [5, 8] was 80.1 nm and the ζ-average particle size [5, 8] was 101.1 nm.
`CCCCCCCCC(CCCCCC)C(=O)OCCCCCCN(CCCCO)CCCCCCOC(=O)C(CCCCCC)CCCCCCCC` (stereo not drawn) [ALC-0315, reference compound] showed a mRNA concentration [3, 10] of 0.025 µg/µL, a mRNA encapsulation rate [3, 10] of 98.4% and a pKa [6, 10] of 6.27. For the same compound, the ζ-potential [4, 10] was -2.1 mV, the Pdl [5, 10] was 0.13 and the “number average particle size” value [5, 10] was 57.0 nm. The ζ-average particle size [5, 10] was 86.0 nm.
`CCCCC(CC)CNC(=O)CCCC(=O)OCC(COC(=O)CCCC(=O)NCC(CC)CCCC)(COC(=O)CCCC(=O)NCC(CC)CCCC)NC(=O)CCN1CCCCC1` (stereo not drawn) [TxT-5-5A8β, 2-(((5-((2-ethylhexyl)amino)-5-oxopentanoyl)oxy)methyl)-2-(3-(piperidin-1-yl)propanamido)propane-1,3-diyl bis(5-((2-ethylhexyl)amino)-5-oxopentanoate)] gave a mRNA concentration [3, 9] of 0.009 µg/µL, a mRNA encapsulation rate [3, 9] of 73.4% and a ζ-potential [4, 9] of -18.0 mV. For the same compound, the Pdl [5, 9] was 0.30, the “number average particle size” value [5, 9] was 110.3 nm and the ζ-average particle size [5, 9] was 255.9 nm.
In the case of `CCCCCCCCCCN(CCCCCCCCCC)C(=O)CCC(=O)OCC(COC(=O)CCC(=O)N(CCCCCCCCCC)CCCCCCCCCC)(COC(=O)CCC(=O)N(CCCCCCCCCC)CCCCCCCCCC)NC(=O)CCN1CCCCC1` [TxT-5-4A20, 2-(((4-(didecylamino)-4-oxobutanoyl)oxy)methyl)-2-(3-(piperidin-1-yl)propanamido)propane-1,3-diyl bis(4-(didecylamino)-4-oxobutanoate)], the “fluorescence of EGFP” value [2] is reported as “not detectable”, the mRNA concentration [3, 7] is reported as 0.019 µg/µL and the mRNA encapsulation rate [3, 7] is reported as 98.4%. It also gave a mRNA concentration [3, 8] of 0.021 µg/µL, a mRNA encapsulation rate [3, 8] of 96.2% and a pKa [6, 7] of 6.49. It also gave a ζ-potential [4, 7] of -3.7 mV, a ζ-potential [4, 8] of -7.4 mV and a Pdl [5, 7] of 0.08. The “number average particle size” value [5, 7] was 98.6 nm, the ζ-average particle size [5, 7] was 136.8 nm and the Pdl [5, 8] was 0.08. The “number average particle size” value [5, 8] was 110.1 nm and the ζ-average particle size [5, 8] was 140.9 nm.
For `CCCCCCC(CCCCCC)COC(=O)CCCC(=O)OCC(COC(=O)CCCC(=O)OCC(CCCCCC)CCCCCC)(COC(=O)CCCC(=O)OCC(CCCCCC)CCCCCC)NC(=O)CCN1CCCCC1` [TxT-5-5E14, bis(2-hexyloctyl) O,O'-(2-(((5-((2-hexyloctyl)oxy)-5-oxopentanoyl)oxy)methyl)-2-(3-(piperidin-1-yl)propanamido)propane-1,3-diyl) diglutarate], the “fluorescence of EGFP” value [2] was “fluorescence of EGFP was observed”, the mRNA concentration [3, 7] was 0.022 µg/µL and the mRNA encapsulation rate [3, 7] was 98.8%. For the same compound, the mRNA concentration [3, 8] was 0.024 µg/µL, the mRNA encapsulation rate [3, 8] was 98.3% and the pKa [6, 7] was 5.38. It also gave a ζ-potential [4, 7] of -9.7 mV, a ζ-potential [4, 8] of -11.6 mV and a Pdl [5, 7] of 0.17. The “number average particle size” value [5, 7] was 60.2 nm, the ζ-average particle size [5, 7] was 95.7 nm and the Pdl [5, 8] was 0.14. The “number average particle size” value [5, 8] was 71.1 nm and the ζ-average particle size [5, 8] was 103.3 nm.
